# Measurements: patent US20100041892A1, “Therapeutic agent for diabetes” (priority 2005, published 2010)
row,Compound,melting point
1,"CCCCCNS(=O)(=O)NC(=O)OCc1ccc(OCCOC)cc1Oc1ncc(C(F)(F)F)cc1Cl [Example 61, 2-{[3-chloro-5-(trifluoromethyl)pyridin-2-yl]oxy}-4-(2-methoxyethoxy)benzyl [(pentylamino)sulfonyl]carbamate]",153 to 155 °C
2,"CCCCCS(=O)(=O)NC(=O)OCc1ccc(OCCCC)cc1Oc1ncc(C(F)(F)F)cc1Cl [Example 62, 4-butoxy-2-{[3-chloro-5-(trifluoromethyl)pyridin-2-yl]oxy}benzyl (pentylsulfonyl)carbamate]",124.5 to 125.5 °C
3,"CCCCCS(=O)(=O)NC(=O)OCc1ccc(OC(C)C)cc1Oc1ncc(C(F)(F)F)cc1Cl [Example 63, 2-{[3-chloro-5-(trifluoromethyl)pyridin-2-yl]oxy}-4-isopropoxybenzyl (pentylsulfonyl)carbamate]",70 to 73 °C
4,"COCCOc1ccc(COC(=O)NS(=O)(=O)c2ccc(Cl)cc2)c(Oc2ncc(C(F)(F)F)cc2Cl)c1 [Example 65, 2-{[3-chloro-5-(trifluoromethyl)pyridin-2-yl]oxy}-4-(2-methoxyethoxy)benzyl [(4-chlorophenyl)sulfonyl]carbamate]",112 to 115 °C
5,"CCCCNS(=O)(=O)NC(=O)OCc1ccc(OCCOC)cc1Oc1ncc(C(F)(F)F)cc1Cl [Example 66, 2-{[3-chloro-5-(trifluoromethyl)pyridin-2-yl]oxy}-4-(2-methoxyethoxy)benzyl [(butylamino)sulfonyl]carbamate]",164 to 165 °C
6,"COCCOc1ccc(COC(=O)NS(=O)(=O)NCC2CC2)c(Oc2ncc(C(F)(F)F)cc2Cl)c1 [Example 67, 2-{[3-chloro-5-(trifluoromethyl)pyridin-2-yl]oxy}-4-(2-methoxyethoxy)benzyl {[(cyclopropylmethyl)amino]sulfonyl}carbamate]",150 to 150.5 °C
7,"COCCOc1ccc(COC(=O)NS(=O)(=O)Nc2ccc(Cl)cc2)c(Oc2ncc(C(F)(F)F)cc2Cl)c1 [Example 68, 2-{[3-chloro-5-(trifluoromethyl)pyridin-2-yl]oxy}-4-(2-methoxyethoxy)benzyl {[(4-chlorophenyl)amino]sulfonyl}carbamate]",159 °C (dec.)
8,"COCCOc1ccc(CCC(=O)NS(N)(=O)=O)c(Oc2ncc(C(F)(F)F)cc2Cl)c1 [Example 73, N-(aminosulfonyl)-3-[2-{[3-chloro-5-(trifluoromethyl)pyridin-2-yl]oxy}-4-(2-methoxyethoxy)phenyl]propanamide]",158 to 159 °C
9,"CCCCCS(=O)(=O)NC(=O)CCCc1ccc(OCCOC)cc1Oc1ncc(C(F)(F)F)cc1Cl [Example 74, 4-[2-{[3-chloro-5-(trifluoromethyl)pyridin-2-yl]oxy}-4-(2-methoxyethoxy)phenyl]-N-(pentylsulfonyl)butanamide]",96 to 97 °C
10,"COCCCNS(=O)(=O)NC(=O)OCc1ccc(OCCOC)cc1Oc1ncc(C(F)(F)F)cc1Cl [Example 75, 2-{[3-chloro-5-(trifluoromethyl)pyridin-2-yl]oxy}-4-(2-methoxyethoxy)benzyl {[(3-methoxypropyl)amino]sulfonyl}carbamate]",149 to 149.5 °C
11,"CCOCCNS(=O)(=O)NC(=O)OCc1ccc(OCCOC)cc1Oc1ncc(C(F)(F)F)cc1Cl [Example 76, 2-{[3-chloro-5-(trifluoromethyl)pyridin-2-yl]oxy}-4-(2-methoxyethoxy)benzyl {[(2-ethoxyethyl)amino]sulfonyl}carbamate]",142.5 to 143 °C
12,"CCCCCS(=O)(=O)NC(=O)CC(C)c1ccc(OCCOC)cc1Oc1ncc(C(F)(F)F)cc1Cl (stereo not drawn) [Example 77, 3-[2-{[3-chloro-5-(trifluoromethyl)pyridin-2-yl]oxy}-4-(2-methoxyethoxy)phenyl]-N-(pentylsulfonyl)butanamide]",136.9 to 137.1 °C
13,"COCCCS(=O)(=O)NC(=O)CC(C)c1ccc(OCCOC)cc1Oc1ncc(C(F)(F)F)cc1Cl (stereo not drawn) [Example 78, 3-[2-{[3-chloro-5-(trifluoromethyl)pyridin-2-yl]oxy}-4-(2-methoxyethoxy)phenyl]-N-[(3-methoxypropyl)sulfonyl]butanamide]",107 to 109 °C
14,"CCCCCS(=O)(=O)NC(=O)CCc1cc(OC(C)C)nn1Cc1ccc(F)cc1F [Example 80, 3-[1-(2,4-difluorobenzyl)-3-isopropoxy-1H-pyrazol-5-yl]-N-(pentylsulfonyl)propanamide]",107 to 108 °C
15,"CC(C)Oc1cc(CCC(=O)NS(=O)(=O)c2ccccc2)n(Cc2ccc(Cl)cc2Cl)n1 [Example 82, 3-[1-(2,4-dichlorobenzyl)-3-isopropoxy-1H-pyrazol-5-yl]-N-(phenylsulfonyl)propanamide]",184 to 185 °C
16,"CC(C)Oc1cc(CCC(=O)NS(=O)(=O)c2ccc(C(F)(F)F)cc2)n(Cc2ccc(Cl)cc2Cl)n1 [Example 83, 3-[1-(2,4-dichlorobenzyl)-3-isopropoxy-1H-pyrazol-5-yl]-N-{[4-(trifluoromethyl)phenyl]sulfonyl}propanamide]",167 to 169 °C
17,"CCCS(=O)(=O)NC(=O)CCc1cc(OC(C)C)nn1Cc1ccc(Cl)cc1Cl [Example 85, 3-[1-(2,4-dichlorobenzyl)-3-isopropoxy-1H-pyrazol-5-yl]-N-(propylsulfonyl)propanamide]",124 to 126 °C
18,"CCCCCCS(=O)(=O)NC(=O)CCc1cc(OC(C)C)nn1Cc1ccc(Cl)cc1Cl [Example 87, 3-[1-(2,4-dichlorobenzyl)-3-isopropoxy-1H-pyrazol-5-yl]-N-(hexylsulfonyl)propanamide]",103 to 106 °C
19,"Cc1ccccc1S(=O)(=O)NC(=O)CCc1cc(OC(C)C)nn1Cc1ccc(Cl)cc1Cl [Example 88, 3-[1-(2,4-dichlorobenzyl)-3-isopropoxy-1H-pyrazol-5-yl]-N-[(2-methylphenyl)sulfonyl]propanamide]",165 to 166 °C
20,"CC(C)Oc1cc(CCC(=O)NS(=O)(=O)C(C)C)n(Cc2ccc(Cl)cc2Cl)n1 [Example 89, 3-[1-(2,4-dichlorobenzyl)-3-isopropoxy-1H-pyrazol-5-yl]-N-(isopropylsulfonyl)propanamide]",135 to 136 °C
21,"CC(C)Oc1cc(CCC(=O)NS(=O)(=O)C2CCCCC2)n(Cc2ccc(Cl)cc2Cl)n1 [Example 90, N-(cyclohexylsulfonyl)-3-[1-(2,4-dichlorobenzyl)-3-isopropoxy-1H-pyrazol-5-yl]propanamide]",137 to 138 °C
22,"CC(C)Oc1cc(CCC(=O)NS(=O)(=O)CCCc2ccccc2)n(Cc2ccc(Cl)cc2Cl)n1 [Example 91, 3-[1-(2,4-dichlorobenzyl)-3-isopropoxy-1H-pyrazol-5-yl]-N-[(3-phenylpropyl)sulfonyl]propanamide]",132 to 134 °C
23,"CC(C)CCS(=O)(=O)NC(=O)CCc1cc(OC(C)C)nn1Cc1ccc(Cl)cc1Cl [Example 92, 3-[1-(2,4-dichlorobenzyl)-3-isopropoxy-1H-pyrazol-5-yl]-N-[(3-methylbutyl)sulfonyl]propanamide]",143 to 145 °C
24,"CCCCCS(=O)(=O)NC(=O)/C=C/c1cc(OCCCC)nn1Cc1ccc(Cl)cc1Cl [Example 98, (2E)-3-[3-butoxy-1-(2,4-dichlorobenzyl)-1H-pyrazol-5-yl]-N-(pentylsulfonyl)acrylamide]",95 to 98 °C
